The results in this text go back to BindingDB's records for doi:10.1016/j.ab.2004.03.009 (Schering-Plough Research Institute, 2004).

Structures are written as SMILES.

The assay deals with E3 ubiquitin-protein ligase Mdm2 (Homo sapiens, UniProt Q00987). Kind of assay: Fluorescence Polarization (FP) Binding Assay. Conditions: pH 7.4; 23 °C. The procedure: Ki values were determined from a competition experiment in which serial dilutions of inhibitor were added to compete against a fixed concentration (1 or 10 nM) of the fluorescent ligand for binding to a fixed concentration of the protein. Ki value was determined by nonlinear regression fitting of the competition curve using a set of custom equations and an Excel curve fitting tool.
Chain of E3 ubiquitin-protein ligase Mdm2 (Q00987 whole entry): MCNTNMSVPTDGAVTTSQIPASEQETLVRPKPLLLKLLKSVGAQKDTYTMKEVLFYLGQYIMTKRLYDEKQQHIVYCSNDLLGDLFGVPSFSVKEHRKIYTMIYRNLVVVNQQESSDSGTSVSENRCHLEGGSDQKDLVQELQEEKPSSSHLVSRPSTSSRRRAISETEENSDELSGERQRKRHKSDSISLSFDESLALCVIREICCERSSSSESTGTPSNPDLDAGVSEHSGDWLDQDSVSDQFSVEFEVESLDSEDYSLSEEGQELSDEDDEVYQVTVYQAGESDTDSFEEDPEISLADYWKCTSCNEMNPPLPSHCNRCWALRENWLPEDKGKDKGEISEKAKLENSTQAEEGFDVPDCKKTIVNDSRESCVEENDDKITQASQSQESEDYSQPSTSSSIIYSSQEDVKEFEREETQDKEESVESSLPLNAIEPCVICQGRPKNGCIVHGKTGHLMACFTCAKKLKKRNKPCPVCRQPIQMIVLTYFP

A word on the Ki: it is the dissociation constant of the complex between target and ligand, obtained from inhibition or displacement. Consider `O=C(N[C@@H](Cc1c[nH]c2cc(Br)ccc12)C(=O)O)c1ccccc1Oc1ccccc1` [2-phenoxybenzoyltryptophan derivative, R1C1], for which the Ki was 3000 nM.

In the case of `O=C(N[C@@H](Cc1cn(C(=O)CCC2CCCC2)c2cc(Br)ccc12)C(=O)O)c1ccccc1Oc1ccccc1` [2-phenoxybenzoyltryptophan derivative, R1C2], the Ki was 800 nM.

`O=C(N[C@@H](Cc1cn(C(=O)OCc2ccccc2)c2cc(Br)ccc12)C(=O)O)c1ccccc1Oc1ccccc1` [2-phenoxybenzoyltryptophan derivative, R1C3]: the Ki came to 500 nM. The same measure for `O=C(N[C@@H](Cc1cn(Cc2ccc(OCc3ccccc3)cc2)c2cc(Br)ccc12)C(=O)O)c1ccccc1Oc1ccccc1` [2-phenoxybenzoyltryptophan derivative, R1C4]: 600 nM. On to `O=C(N[C@@H](Cc1c[nH]c2cc(Cl)ccc12)C(=O)O)c1ccccc1Oc1ccccc1` [2-phenoxybenzoyltryptophan derivative, R2C1], for which the Ki was 6000 nM.

Take `O=C(N[C@@H](Cc1cn(C(=O)CCC2CCCC2)c2cc(Cl)ccc12)C(=O)O)c1ccccc1Oc1ccccc1` [2-phenoxybenzoyltryptophan derivative, R2C2]: the Ki was 800 nM. Consider `O=C(N[C@@H](Cc1cn(C(=O)OCc2ccccc2)c2cc(Cl)ccc12)C(=O)O)c1ccccc1Oc1ccccc1` [2-phenoxybenzoyltryptophan derivative, R2C3], for which the Ki turned out to be 600 nM. In the case of `O=C(N[C@@H](Cc1cn(Cc2ccc(OCc3ccccc3)cc2)c2cc(Cl)ccc12)C(=O)O)c1ccccc1Oc1ccccc1` [2-phenoxybenzoyltryptophan derivative, R2C4], the inhibitory constant (Ki) is 1000 nM. For the compound `O=C(N[C@@H](Cc1c[nH]c2cc(F)ccc12)C(=O)O)c1ccccc1Oc1ccccc1` [2-phenoxybenzoyltryptophan derivative, R3C1], the Ki is 20000 nM. In the case of `O=C(N[C@@H](Cc1cn(C(=O)CCC2CCCC2)c2cc(F)ccc12)C(=O)O)c1ccccc1Oc1ccccc1` [2-phenoxybenzoyltryptophan derivative, R3C2], the Ki turned out to be 400 nM. The figure for `O=C(N[C@@H](Cc1cn(C(=O)OCc2ccccc2)c2cc(F)ccc12)C(=O)O)c1ccccc1Oc1ccccc1` [2-phenoxybenzoyltryptophan derivative, R3C3] is 800 nM; for `O=C(N[C@@H](Cc1cn(Cc2ccc(OCc3ccccc3)cc2)c2cc(F)ccc12)C(=O)O)c1ccccc1Oc1ccccc1` [2-phenoxybenzoyltryptophan derivative, R3C4] it is 2000 nM; for `N#Cc1ccc2[nH]cc(C[C@H](NC(=O)c3ccccc3Oc3ccccc3)C(=O)O)c2c1` [2-phenoxybenzoyltryptophan derivative, R4C1] it is 10000 nM. Take `N#Cc1ccc2c(c1)c(C[C@H](NC(=O)c1ccccc1Oc1ccccc1)C(=O)O)cn2C(=O)CCC1CCCC1` [2-phenoxybenzoyltryptophan derivative, R4C2]: the Ki came to 600 nM. Take `N#Cc1ccc2c(c1)c(C[C@H](NC(=O)c1ccccc1Oc1ccccc1)C(=O)O)cn2C(=O)OCc1ccccc1` [2-phenoxybenzoyltryptophan derivative, R4C3]: the Ki is 600 nM. The same measure for `N#Cc1ccc2c(c1)c(C[C@H](NC(=O)c1ccccc1Oc1ccccc1)C(=O)O)cn2Cc1ccc(OCc2ccccc2)cc1` [2-phenoxybenzoyltryptophan derivative, R4C4]: 1000 nM; for `Cc1ccc2[nH]cc(C[C@H](NC(=O)c3ccccc3Oc3ccccc3)C(=O)O)c2c1` [2-phenoxybenzoyltryptophan derivative, R5C1]: 10000 nM; for `Cc1ccc2c(c1)c(C[C@H](NC(=O)c1ccccc1Oc1ccccc1)C(=O)O)cn2C(=O)CCC1CCCC1` [2-phenoxybenzoyltryptophan derivative, R5C2]: 200 nM. As for `Cc1ccc2c(c1)c(C[C@H](NC(=O)c1ccccc1Oc1ccccc1)C(=O)O)cn2C(=O)OCc1ccccc1` [2-phenoxybenzoyltryptophan derivative, R5C3], the Ki turned out to be 100 nM. With `Cc1ccc2c(c1)c(C[C@H](NC(=O)c1ccccc1Oc1ccccc1)C(=O)O)cn2Cc1ccc(OCc2ccccc2)cc1` [2-phenoxybenzoyltryptophan derivative, R5C4], the inhibitory constant (Ki) worked out at 600 nM.
